Data published in the supplement of paper PMC10307832.

Key:
Assay in all cases: relative viability (nuclei count vs DMSO), 5 days (fraction); higher = more cells survive
NVP-TAE684 + Olaparib = compound: COc1cc(N2CCC(N3CCN(C)CC3)CC2)ccc1Nc1ncc(Cl)c(Nc2ccccc2S(=O)(=O)C(C)C)n1 [NVP-TAE684] + O=C(c1cc(Cc2n[nH]c(=O)c3ccccc23)ccc1F)N1CCN(C(=O)C2CC2)CC1 [Olaparib] (partner 8 µM)
Outline: (§1)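 For relative viability, nuclei counts in treated wells were divided by those in vehicle wells. Lung cancer cell lines had been pin-tool dosed in 1536-well plates the day after seeding and cultured for 5 days, then fixed and stained in one step (final 0.05% Triton X-100, 1% formaldehyde, 1 ug/ml Hoechst) and imaged at 4×. Doses were one drug alone or a fixed anchor-drug dose plus five library-drug doses (not always all listed) in √10 steps, and values are duplicate-plate medians.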

Vandetanib + Pictilisib = compound: COc1cc2/c(=N/c3ccc(Br)cc3F)nc[nH]c2cc1OCC1CCN(C)CC1 [Vandetanib] + CS(=O)(=O)N1CCN(Cc2cc3nc(-c4cccc5[nH]ncc45)nc(N4CCOCC4)c3s2)CC1 [Pictilisib] (partner 1 µM)
Outline: as §1

CUDC-101 + Linsitinib = compound: C#Cc1cccc(Nc2ncnc3cc(OC)c(OCCCCCCC(=O)NO)cc23)c1 [CUDC-101] + C[C@]1(O)C[C@@H](c2nc(-c3ccc4ccc(-c5ccccc5)nc4c3)c3c(N)nccn32)C1 [Linsitinib] (partner 1 µM)
Outline: as §1

CUDC-101 + Tozasertib = compound: C#Cc1cccc(Nc2ncnc3cc(OC)c(OCCCCCCC(=O)NO)cc23)c1 [CUDC-101] + Cc1cc(Nc2cc(N3CCN(C)CC3)nc(Sc3ccc(NC(=O)C4CC4)cc3)n2)n[nH]1 [Tozasertib] (partner 0.1 µM)
Outline: as §1

Cell Line | relative viability (NVP-TAE684 + Olaparib; first compound 0.2 µM) | relative viability (NVP-TAE684 + Olaparib; first compound 0.6325 µM) | relative viability (NVP-TAE684 + Olaparib; first compound 2 µM) | relative viability (Vandetanib + Pictilisib; first compound 0.02 µM) | relative viability (Vandetanib + Pictilisib; first compound 0.06325 µM) | relative viability (Vandetanib + Pictilisib; first compound 0.2 µM) | relative viability (Vandetanib + Pictilisib; first compound 0.6325 µM) | relative viability (Vandetanib + Pictilisib; first compound 2 µM) | relative viability (CUDC-101 + Linsitinib; first compound 0.01 µM) | relative viability (CUDC-101 + Linsitinib; first compound 0.03162 µM) | relative viability (CUDC-101 + Linsitinib; first compound 0.1 µM) | relative viability (CUDC-101 + Linsitinib; first compound 0.3162 µM) | relative viability (CUDC-101 + Linsitinib; first compound 1 µM) | relative viability (CUDC-101 + Tozasertib; first compound 0.01 µM) | relative viability (CUDC-101 + Tozasertib; first compound 0.03162 µM) | relative viability (CUDC-101 + Tozasertib; first compound 0.1 µM) | relative viability (CUDC-101 + Tozasertib; first compound 0.3162 µM) | relative viability (CUDC-101 + Tozasertib; first compound 1 µM)
CAL-12T | 0.664 | 0.781 | 0.267 | 0.436 | 0.412 | 0.398 | 0.398 | 0.311 | 0.914 | 0.7 | 0.777 | 0.924 | 0.656 | 0.409 | 0.278 | 0.318 | 0.344 | 0.362
A-427 | 0.814 | 0.674 | 0.631 | 0.676 | 0.626 | 0.762 | 0.674 | 0.777 | 1.09 | 1.05 | 1.05 | 1.11 | 1.05 | 0.211 | 0.227 | 0.219 | 0.205 | 0.165
NCI-H1975 | 0.862 | 0.748 | 0.288 | 0.285 | 0.26 | 0.296 | 0.27 | 0.301 | 1.1 | 0.881 | 1.01 | 0.888 | 0.905 | 0.741 | 0.717 | 0.843 | 0.837 | 0.701
NCI-H1993 | 1.11 | 1.09 | 0.749 | 0.832 | 0.727 | 0.64 | 0.85 | 0.723 | 0.755 | 0.756 | 0.738 | 0.772 | 0.705 | 0.592 | 0.517 | 0.624 | 0.53 | 0.502
NCI-H2023 | 0.587 | 0.518 | 0.138 | 0.218 | 0.201 | 0.261 | 0.202 | 0.279 | 0.636 | 0.482 | 0.606 | 0.776 | 0.608 | 0.336 | 0.337 | 0.363 | 0.328 | 0.293
201T | 0.886 | 0.823 | 0.815 | 0.663 | 0.648 | 0.652 | 0.706 | 0.692 | 1.05 | 0.93 | 0.978 | 1.05 | 0.781 | 0.927 | 0.899 | 0.876 | 0.69 | 0.536
LK-2 | 0.698 | 0.698 | 0.451 | 0.585 | 0.652 | 0.531 | 0.559 | 0.478 | 0.464 | 0.561 | 0.614 | 0.472 | 0.25 | 0.149 | 0.222 | 0.185 | 0.195 | 0.139
SW 1573 | 0.519 | 0.401 | 0.148 | 0.545 | 0.534 | 0.552 | 0.436 | 0.407 | 0.867 | 0.919 | 0.915 | 0.955 | 0.637 | 0.211 | 0.182 | 0.173 | 0.173 | 0.131
NCI-H647 | 0.434 | 0.562 | 0.16 | 0.457 | 0.419 | 0.349 | 0.412 | 0.161 | 1.23 | 1.03 | 1.18 | 1.1 | 1.12 | 0.235 | 0.338 | 0.266 | 0.223 | 0.211
HCC-78 | 0.727 | 0.859 | 0.406 | 0.192 | 0.294 | 0.234 | 0.231 | 0.189 | 0.438 | 0.387 | 0.707 | 0.42 | 0.27 | 0.401 | 0.405 | 0.36 | 0.316 | 0.184
NCI-H727 | 0.612 | 0.601 | 0.679 | 0.33 | 0.272 | 0.341 | 0.325 | 0.309 | 0.204 | 0.207 | 0.308 | 0.396 | 0.242 | 0.56 | 0.556 | 0.56 | 0.673 | 0.407
BEN | 1.04 | 0.971 | 0.894 | 0.576 | 0.49 | 0.585 | 0.646 | 0.538 | 1.04 | 0.719 | 1.12 | 0.824 | 0.628 | 0.54 | 0.505 | 0.452 | 0.47 | 0.427
NCI-H650 | 0.423 | 0.376 | 0.289 | 0.809 | 0.849 | 0.884 | 0.908 | 0.811 | 0.992 | 0.876 | 1.04 | 0.662 | 0.688 | 0.844 | 0.733 | 0.639 | 0.599 | 0.369
NCI-H441 | 0.617 | 0.659 | 0.309 | 0.333 | 0.49 | 0.425 | 0.527 | 0.452 | 0.748 | 0.662 | 0.579 | 0.779 | 0.358 | 0.536 | 0.683 | 0.645 | 0.599 | 0.435
NCI-H1793 | 1.01 | 0.841 | 0.508 | 0.338 | 0.309 | 0.27 | 0.341 | 0.379 | 0.898 | 0.73 | 0.803 | 0.779 | 0.633 | 0.321 | 0.237 | 0.325 | 0.293 | 0.375
NCI-H1915 | 0.295 | 0.281 | 0.228 | 0.858 | 0.901 | 0.946 | 0.944 | 0.888 | 1.1 | 1.16 | 1.07 | 1.11 | 1 | 0.437 | 0.458 | 0.429 | 0.357 | 0.288
HCC-366 | 0.352 | 0.326 | 0.288 | 0.146 | 0.141 | 0.202 | 0.112 | 0.112 | 0.658 | 0.344 | 0.741 | 0.607 | 0.528 | 0.127 | 0.111 | 0.0975 | 0.111 | 0.0886
LCLC-103H | 0.794 | 0.783 | 0.726 | 0.565 | 0.518 | 0.563 | 0.528 | 0.472 | 1.12 | 1.11 | 1.11 | 1.11 | 1.15 | 0.54 | 0.494 | 0.485 | 0.418 | 0.322
SK-LU-1 | 0.483 | 0.425 | 0.352 | 0.657 | 0.43 | 0.509 | 0.663 | 0.532 | 1.17 | 0.942 | 1.08 | 0.868 | 0.773 | 0.336 | 0.322 | 0.367 | 0.309 | 0.269
ABC-1 | 0.636 | 0.692 | 0.37 | 0.794 | 0.673 | 0.866 | 0.664 | 0.765 | 0.816 | 0.778 | 0.601 | 0.567 | 0.303 | 0.139 | 0.186 | 0.189 | 0.166 | 0.128
NCI-H1666 | 0.734 | 0.772 | 0.736 | 0.343 | 0.446 | 0.498 | 0.451 | 0.322 | 0.747 | 0.741 | 0.759 | 0.84 | 0.519 | 0.594 | 0.564 | 0.676 | 0.565 | 0.507
COR-L23 | 0.273 | 0.282 | 0.281 | 0.709 | 0.643 | 0.989 | 0.813 | 0.78 | 1.25 | 0.898 | 0.956 | 0.736 | 0.252 | 0.245 | 0.202 | 0.208 | 0.218 | 0.159
NCI-H460 | 0.537 | 0.484 | 0.633 | 0.351 | 0.359 | 0.349 | 0.371 | 0.331 | 0.928 | 0.648 | 0.901 | 0.757 | 0.595 | 0.379 | 0.393 | 0.396 | 0.629 | 0.373
